Experimental data published in PMC8471451 (Pharmaceuticals, 2021).
Several values for one entry are separate records, joined by “and”; a condition that tells them apart may be missing. Equal entries are not always repeated.

Assays:
[1] = test system: HEK-293T-ACE2^h cells; assay: Cytotoxicity by MTT assay; format: cell-based, human; details: for CC0 (maximum nontoxic concentration): 4 h incubation; for TC50 (concentration causing 50% host cells' death): 48 h treatment
Procedure: The cytotoxic effect of honokiol derivatives on HEK-293T-ACE2^h cells was evaluated by MTT assay. HEK-293T-ACE2^h cells were seed into 96-well plate at a density of 1×10^4 cells per well and then treated with various concentrations of compounds for either 4 or 48 h. Then 10 μL of 3-(4, 5-dimethylthiazol-2-yl)-2, 5-diphenyltetrazolium bromide (MTT) (5 mg/mL) solution was added to each well for another 4 h incubation. The supernatants were then removed, and the formed formazan crystals were dissolved in 100 μL DMSO and the plate was agitated for 10 min. Relative cell viability was assessed by measuring the absorbance at 570 nm by using a microplate reader (Infinite M200 PRO Microplate Reader, Tecan, Swiss). The survival rate of HEK-293T-ACE2^h cells was calculated using the following formula: [(ODtreated-ODblank) / (ODcontrol-ODblank)] × 100%. The 50% toxic concentration (TC50) for 48 h was calculated by the GraphPad Prism 8.0 software (La Jolla, CA, USA). The maximum nontoxic concentration (CC0) for 4 h was determined as the maximum tested concentration in which the cell viability was 100%. Data were obtained from three independent experiments.

[2] = test system: SARS-CoV-2 spike pseudovirus; assay: microbe, parasite or virus in culture; format: cell-based; details: for IC50: Severe acute respiratory syndrome coronavirus 2, read-out: IC50 (inhibition of 50% viral entry into host cells)
[3] = target: T1, human ACE2 protein (Homo sapiens, UniProt Q9BYF1); assay: Biolayer interferometry (BLI) binding assay with human ACE2; details: His-tagged human ACE2 on Ni-NTA biosensor, 30 °C, 1:1 model
T1 construct: purchased Sino Biological
T1 sequence (Q9BYF1 18-805): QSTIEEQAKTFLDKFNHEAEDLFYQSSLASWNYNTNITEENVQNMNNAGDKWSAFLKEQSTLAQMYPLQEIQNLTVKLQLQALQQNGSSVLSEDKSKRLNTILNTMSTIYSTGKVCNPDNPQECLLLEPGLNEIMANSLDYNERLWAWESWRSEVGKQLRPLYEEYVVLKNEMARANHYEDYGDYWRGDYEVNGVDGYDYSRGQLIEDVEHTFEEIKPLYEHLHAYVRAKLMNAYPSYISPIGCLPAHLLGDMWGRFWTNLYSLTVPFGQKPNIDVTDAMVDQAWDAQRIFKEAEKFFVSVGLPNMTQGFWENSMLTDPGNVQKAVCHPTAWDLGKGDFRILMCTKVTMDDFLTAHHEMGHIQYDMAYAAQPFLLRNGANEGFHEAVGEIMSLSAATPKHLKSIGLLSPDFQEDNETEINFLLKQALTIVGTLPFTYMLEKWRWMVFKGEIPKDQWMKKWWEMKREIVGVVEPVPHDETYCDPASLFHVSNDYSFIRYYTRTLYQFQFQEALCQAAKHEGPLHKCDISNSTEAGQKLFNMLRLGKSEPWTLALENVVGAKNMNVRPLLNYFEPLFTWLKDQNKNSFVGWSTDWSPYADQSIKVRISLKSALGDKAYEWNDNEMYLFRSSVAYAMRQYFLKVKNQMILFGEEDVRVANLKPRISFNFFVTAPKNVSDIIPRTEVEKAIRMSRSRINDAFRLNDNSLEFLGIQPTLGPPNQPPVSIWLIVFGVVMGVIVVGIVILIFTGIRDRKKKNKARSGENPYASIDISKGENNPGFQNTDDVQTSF

[4] = target: T2, SARS-CoV-2 spike RBD protein (Severe acute respiratory syndrome coronavirus 2, UniProt P0DTC2); format: binding
T2 construct: purchased Sino Biological

[5] = target: T3, SARS-CoV-2 spike RBD binding with ACE2 protein (Homo sapiens, UniProt Q9BYF1); assay: Competitive ELISA of spike RBD binding with ACE2; format: biochemical; details: read-out: Inhibitory rate of spike RBD-ACE2 binding
T3 construct: purchased Sino Biological
T3 sequence (Q9BYF1 18-740): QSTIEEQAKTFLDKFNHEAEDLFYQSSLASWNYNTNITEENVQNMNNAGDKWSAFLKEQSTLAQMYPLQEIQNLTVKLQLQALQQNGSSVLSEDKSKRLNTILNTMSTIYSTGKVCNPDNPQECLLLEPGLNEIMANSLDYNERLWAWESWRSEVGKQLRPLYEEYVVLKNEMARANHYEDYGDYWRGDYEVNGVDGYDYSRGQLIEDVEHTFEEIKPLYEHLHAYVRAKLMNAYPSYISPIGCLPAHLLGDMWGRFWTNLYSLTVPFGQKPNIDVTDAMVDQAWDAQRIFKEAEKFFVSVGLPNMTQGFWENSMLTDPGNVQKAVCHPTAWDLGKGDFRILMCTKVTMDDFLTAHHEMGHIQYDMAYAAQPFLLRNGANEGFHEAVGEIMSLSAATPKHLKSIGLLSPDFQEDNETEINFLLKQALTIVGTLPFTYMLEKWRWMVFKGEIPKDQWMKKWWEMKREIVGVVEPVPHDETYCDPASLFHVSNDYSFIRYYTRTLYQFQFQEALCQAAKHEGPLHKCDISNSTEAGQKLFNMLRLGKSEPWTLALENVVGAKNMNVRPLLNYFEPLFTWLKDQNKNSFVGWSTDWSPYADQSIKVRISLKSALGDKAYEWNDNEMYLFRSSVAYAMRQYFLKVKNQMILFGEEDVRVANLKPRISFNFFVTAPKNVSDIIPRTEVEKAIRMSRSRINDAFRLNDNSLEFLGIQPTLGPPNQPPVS

Row | Structure (SMILES) | CC0 (maximum nontoxic concentration) [1] [µM] | TC50 (concentration causing 50% host cells' death) [1] | IC50 [2] [µM] | also measured
1 | C=CCc1cc(-c2cc(CC=C)c3oc(=O)n(Cc4nnc(-c5ccccc5)o4)c3c2)c2oc(=O)n(Cc3nnc(-c4ccccc4)o3)c2c1 [Compound 6a] | >100 | >100 µM | 29.2 ± 0.71 | SI (selectivity index, TC50/IC50) [2]: >3.42; Kd [3]: 8.41 ± 0.43 µM
2 | C=CCc1cc(-c2cc(CC=C)c3oc(=O)n(Cc4nnc(-c5ccccc5Cl)o4)c3c2)c2oc(=O)n(Cc3nnc(-c4ccccc4Cl)o3)c2c1 [Compound 6b] | >100 | >100 µM | > 100 | 
3 | C=CCc1cc(-c2cc(CC=C)c3oc(=O)n(Cc4nnc(-c5cccc(Cl)c5)o4)c3c2)c2oc(=O)n(Cc3nnc(-c4cccc(Cl)c4)o3)c2c1 [Compound 6c] | >100 | >100 µM | > 100 | 
4 | C=CCc1cc(-c2cc(CC=C)c3oc(=O)n(Cc4nnc(-c5ccc(Cl)cc5)o4)c3c2)c2oc(=O)n(Cc3nnc(-c4ccc(Cl)cc4)o3)c2c1 [Compound 6d] | 50 |  | > 50 | 
5 | C=CCc1cc(-c2cc(CC=C)c3oc(=O)n(Cc4nnc(-c5ccccc5Br)o4)c3c2)c2oc(=O)n(Cc3nnc(-c4ccccc4Br)o3)c2c1 [Compound 6e] | >100 | >100 µM | > 100 | 
6 | C=CCc1cc(-c2cc(CC=C)c3oc(=O)n(Cc4nnc(-c5cccc(Br)c5)o4)c3c2)c2oc(=O)n(Cc3nnc(-c4cccc(Br)c4)o3)c2c1 [Compound 6f] | 50 |  | > 50 | 
7 | C=CCc1cc(-c2cc(CC=C)c3oc(=O)n(Cc4nnc(-c5ccc(Br)cc5)o4)c3c2)c2oc(=O)n(Cc3nnc(-c4ccc(Br)cc4)o3)c2c1 [Compound 6g] | 50 |  | > 50 | 
8 | C=CCc1cc(-c2cc(CC=C)c3oc(=O)n(Cc4nnc(-c5ccccc5F)o4)c3c2)c2oc(=O)n(Cc3nnc(-c4ccccc4F)o3)c2c1 [Compound 6h] | >100 |  | 61.6 ± 1.21 | SI (selectivity index, TC50/IC50) [2]: >1.62
9 | C=CCc1cc(-c2cc(CC=C)c3oc(=O)n(Cc4nnc(-c5cccc(F)c5)o4)c3c2)c2oc(=O)n(Cc3nnc(-c4cccc(F)c4)o3)c2c1 [Compound 6i] | >100 | >100 µM | > 100 | Antiviral entry activity (in words) [2]: complete loss of antiviral activities
10 | C=CCc1cc(-c2cc(CC=C)c3oc(=O)n(Cc4nnc(-c5ccc(F)cc5)o4)c3c2)c2oc(=O)n(Cc3nnc(-c4ccc(F)cc4)o3)c2c1 [Compound 6j] | 50 |  | > 50 | Antiviral entry activity (in words) [2]: complete loss of antiviral activities
11 | C=CCc1cc(-c2cc(CC=C)c3oc(=O)n(Cc4nnc(-c5ccccc5C)o4)c3c2)c2oc(=O)n(Cc3nnc(-c4ccccc4C)o3)c2c1 [Compound 6k] | >100 | >100 µM | > 100 | 
12 | C=CCc1cc(-c2cc(CC=C)c3oc(=O)n(Cc4nnc(-c5cccc(C)c5)o4)c3c2)c2oc(=O)n(Cc3nnc(-c4cccc(C)c4)o3)c2c1 [Compound 6l] | >100 | >100 µM | > 100 | 
13 | C=CCc1cc(-c2cc(CC=C)c3oc(=O)n(Cc4nnc(-c5ccc(C)cc5)o4)c3c2)c2oc(=O)n(Cc3nnc(-c4ccc(C)cc4)o3)c2c1 [Compound 6m] | 50 |  | > 50 | 
14 | C=CCc1cc(-c2cc(CC=C)c3oc(=O)n(Cc4nnc(-c5ccccc5OC)o4)c3c2)c2oc(=O)n(Cc3nnc(-c4ccccc4OC)o3)c2c1 [Compound 6n] | 50 |  | > 50 | 
15 | C=CCc1cc(-c2cc(CC=C)c3oc(=O)n(Cc4nnc(-c5cccc(OC)c5)o4)c3c2)c2oc(=O)n(Cc3nnc(-c4cccc(OC)c4)o3)c2c1 [Compound 6o] | >100 | >100 µM | > 100 | 
16 | C=CCc1cc(-c2cc(CC=C)c3oc(=O)n(Cc4nnc(-c5ccc(OC)cc5)o4)c3c2)c2oc(=O)n(Cc3nnc(-c4ccc(OC)cc4)o3)c2c1 [Compound 6p] | >100 | >100 µM | 9.82 ± 1.16 | SI (selectivity index, TC50/IC50) [2]: >10.18; Kd [3]: 6.87 ± 0.29 µM; Interaction with spike RBD [4]: doesn’t show interaction; inhibition at 12.5 µM ([5]; 12.5 µM): 26.1%; inhibition at 25 µM [5]: 37.2%; inhibition at 50 µM [5]: 50.4%
17 | C=CCc1ccc(O)c(-c2ccc(O)c(CC=C)c2)c1 [honokiol, reference compound] | 50 | 48.23 µM and 48.23 ± 1.19 µM | > 50 | Kd [3]: 17 ± 3.4 µM; inhibition at 25 µM [5]: 13.8%; inhibition at 50 µM [5]: 20.9%
